Experiments:
healthy subjects = assay: apraclonidine 0.05% eye drop test in healthy control subjects (digital photographs, Image-J); assay type: in vivo, human
From the text: (§1) Patients with a diagnosis of GBS based on history and clinical exam were recruited for this study. Patients with diabetes were excluded from the study. Patients on medications or eye drops with either sympathetic or parasympathetic action were also excluded from the study. […] All patients had electrophysiological studies done in terms of nerve conduction studies at the time of their diagnosis. Patients on opioid therapy were not excluded. In total, five patients met the criteria for inclusion. Healthy control participants were recruited in outpatient clinics from partners and family members accompanying a person with an appointment. Participants with diabetes, ocular disease, previous ocular surgeries, and on sympathetic or parasympathetic medications or eye drops were also excluded from the study. Digital photographs of the subjects' eyes were obtained prior to the application of apraclonidine. A small pre-measured reference was used at the time of photography to help quantify measurements. Apraclonidine (0.05% drop) was added to the left eye and a follow up photograph was obtained some time (19-52 min) after the application of the drop. The digital photographs were analyzed with Image-J software (Schneider, C. A., et al., Nat. Methods 9:671-675, 2012) to determine pupillary diameter and palpebral fissure heights. Standard deviation of the measurements for error propagation was determined by repeated computer measurement of the pre-measured reference in a digital photograph. Palpebral fissure height was determined by measuring the vertical distance between the eyelids with the measurement going through the centre of each pupil. Pupillary diameter was determined with two measurements (horizontal and vertical) and an average denoted as OS or OD used for each pupil for further calculations. Pupillary response was quantified with the percentage ratio (D2−D1)/D1×100, where D1 and D2 represent the baseline anisocoria (D1=OS−OD) and the drug-induced anisocoria (D2=OS*−OD*) respectively.

[1] = tested on: patients with a diagnosis of GBS; assay: apraclonidine 0.05% eye drop test in patients with Guillain-Barré syndrome (digital photographs, Image-J); assay type: in vivo, human
From the text: as §1

Compound: Nc1cc(Cl)c(NC2=NCCN2)c(Cl)c1 [apraclonidine, 2,6-dichloro-N-(4,5-dihydro-1H-imidazol-2-yl)benzene-1,4-diamine]
- effect on pupillary diameter (healthy subjects; healthy subjects, 0.05% drop to one eye): no significant effect
- effect on the pupils (healthy subjects; healthy subjects, analysis of digital photographs): either no effect or caused paradoxical miosis of the pupil
- effect on palpebral fissure height (healthy subjects; normal individuals, 0.05% drop to one eye): did not have any significant effect
- amplification of palpebral fissure height difference after application ([1]; GBS patients with only ptosis, computer analysis of digital photographs): 1130% (±80%)
- amplification of anisocoria after administration ([1]; GBS patients with pupillary dysfunction, (D2-D1)/D1x100): 1124% (±324%)
- unmasking of bilateral ptosis ([1]; five GBS patients, 0.05% drop to left eye, photograph 19-52 min after): unmasked bilateral ptosis in all five GBS patients
- unmasking of bilateral Horner's syndrome with dilation of miotic pupil ([1]; five GBS patients, 0.05% drop to one eye): unmasked bilateral Horner's syndrome with dilation of miotic pupil in two of the five patients
- unmasking of reverse ptosis of the lower eyelid ([1]; photographic evidence from the subjects in this study): unmasks a reverse ptosis of the lower eyelid

Reference: US20160082130A1, “Dosage Forms and Methods for Diagnosing Sympathetic Nervous System Dysfunction” (priority 2014, published 2016)
